Laboratory results taken from US20240300932A1, “N-PHENYLIMINE DERIVATIVE AND PREPARATION METHOD AND USE THEREOF” (Guizhou University, priority 2023, published 2024).

Assays:
Abutilon theophrasti = assay: Post-emergence herbicidal activity test (stem and leaf spray, pot culture); type: in vivo; conditions: 3 weeks after spraying
Summary of the method: (§1)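 Read-out: fresh weight control rate 3 weeks post-spray, graded 5 (≥85%) down to 0 (<5%). Foliar spray at 2–3-leaf stage; rates 10, 5, 2.5 g/mu; acetone + Tween 80 formulation with methyl oleate synergist; greenhouse 20–30 °C, natural light.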

Amaranthus retroflexus = assay: as above; type: in vivo; conditions: 3 weeks after spraying
Summary of the method: as §1

Echinochloa crusgalli = assay: as above; type: in vivo; conditions: 3 weeks after spraying
Summary of the method: as §1

Portulaca oleracea = assay: as above; type: in vivo; conditions: 3 weeks after spraying
Summary of the method: as §1

Setaria viridis = assay: as above; type: in vivo; conditions: 3 weeks after spraying
Summary of the method: as §1

Trifoliumre pensL. = assay: Post-emergence herbicidal activity test (stem and leaf spray, pot culture); type: in vivo; conditions: 3 weeks after spraying
Summary of the method: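 Rates of 10, 5 and 2.5 g/mu were applied in a single spray-tower treatment to 2–3-leaf plants, thinned to 10 per pot. Formulation: acetone solution, Tween 80, 1.5 L/ha methyl oleate synergist. Weed response assessed after 3 further greenhouse weeks; mean of three experiments.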

Structure (SMILES)	Post-emergence herbicidal activity, A. theophrasti (grade) (Abutilon theophrasti; dosage 2.5 g/mu)	Post-emergence herbicidal activity, A. theophrasti (grade) (Abutilon theophrasti; dosage 5 g/mu)	Post-emergence herbicidal activity, A. theophrasti (grade) (Abutilon theophrasti; dosage 10 g/mu)	Post-emergence herbicidal activity, A. retroflexus (grade) (Amaranthus retroflexus; dosage 2.5 g/mu)	Post-emergence herbicidal activity, A. retroflexus (grade) (Amaranthus retroflexus; dosage 5 g/mu)	Post-emergence herbicidal activity, A. retroflexus (grade) (Amaranthus retroflexus; dosage 10 g/mu)	Post-emergence herbicidal activity, E. crusgalli (grade) (Echinochloa crusgalli; dosage 2.5 g/mu)	Post-emergence herbicidal activity, E. crusgalli (grade) (Echinochloa crusgalli; dosage 5 g/mu)	Post-emergence herbicidal activity, E. crusgalli (grade) (Echinochloa crusgalli; dosage 10 g/mu)	Post-emergence herbicidal activity, P. oleracea (grade) (Portulaca oleracea; dosage 2.5 g/mu)	Post-emergence herbicidal activity, P. oleracea (grade) (Portulaca oleracea; dosage 5 g/mu)	Post-emergence herbicidal activity, P. oleracea (grade) (Portulaca oleracea; dosage 10 g/mu)	Post-emergence herbicidal activity, S. viridis (grade) (Setaria viridis; dosage 2.5 g/mu)	Post-emergence herbicidal activity, S. viridis (grade) (Setaria viridis; dosage 5 g/mu)	Post-emergence herbicidal activity, S. viridis (grade) (Setaria viridis; dosage 10 g/mu)	melting point [°C]	Post-emergence herbicidal activity, Trifoliumre pensL. (grade) (Trifoliumre pensL.; dosage 2.5 g/mu)	Post-emergence herbicidal activity, Trifoliumre pensL. (grade) (Trifoliumre pensL.; dosage 5 g/mu)	Post-emergence herbicidal activity, Trifoliumre pensL. (grade) (Trifoliumre pensL.; dosage 10 g/mu)
COc1ccc(C(=O)COc2cc(N3C(=O)C4=C(CCCC4)C3=O)c(F)cc2Cl)cc1 [Compound C13, 2-(4-chloro-2-fluoro-5-(2-oxo-2-(4-methoxyphenyl)ethoxy)phenyl)-4,5,6,7-tetrahydro-1H-isoindole-1,3(2H)-dione]	5 (Grade 5: the growth control rate is greater than or equal to 85%)	5 (Grade 5: the growth control rate is greater than or equal to 85%)	5 (Grade 5: the growth control rate is greater than or equal to 85%)	5 (Grade 5: the growth control rate is greater than or equal to 85%)	5 (Grade 5: the growth control rate is greater than or equal to 85%)	5 (Grade 5: the growth control rate is greater than or equal to 85%)	1 (Grade 1: the growth control rate is greater than or equal to 5% and less than 20%)	2 (Grade 2: the growth control rate is greater than or equal to 20% and less than 40%)	3 (Grade 3: the growth control rate is greater than or equal to 40% and less than 60%)	5 (Grade 5: the growth control rate is greater than or equal to 85%)	5 (Grade 5: the growth control rate is greater than or equal to 85%)	5 (Grade 5: the growth control rate is greater than or equal to 85%)	2 (Grade 2: the growth control rate is greater than or equal to 20% and less than 40%)	3 (Grade 3: the growth control rate is greater than or equal to 40% and less than 60%)	4 (Grade 4: the growth control rate is greater than or equal to 60% and less than 85%)	151 to 153	5 (Grade 5: the growth control rate is greater than or equal to 85%)	5 (Grade 5: the growth control rate is greater than or equal to 85%)	5 (Grade 5: the growth control rate is greater than or equal to 85%)
O=C(COc1cc(N2C(=O)C3=C(CCCC3)C2=O)c(F)cc1Cl)c1ccc(Br)cc1 [Compound C14, 2-(4-chloro-2-fluoro-5-(2-oxo-2-(4-bromophenyl)ethoxy)phenyl)-4,5,6,7-tetrahydro-1H-isoindole-1,3(2H)-dione]	5 (Grade 5: the growth control rate is greater than or equal to 85%)	5 (Grade 5: the growth control rate is greater than or equal to 85%)	5 (Grade 5: the growth control rate is greater than or equal to 85%)	5 (Grade 5: the growth control rate is greater than or equal to 85%)	5 (Grade 5: the growth control rate is greater than or equal to 85%)	5 (Grade 5: the growth control rate is greater than or equal to 85%)	1 (Grade 1: the growth control rate is greater than or equal to 5% and less than 20%)	2 (Grade 2: the growth control rate is greater than or equal to 20% and less than 40%)	3 (Grade 3: the growth control rate is greater than or equal to 40% and less than 60%)	5 (Grade 5: the growth control rate is greater than or equal to 85%)	5 (Grade 5: the growth control rate is greater than or equal to 85%)	5 (Grade 5: the growth control rate is greater than or equal to 85%)	2 (Grade 2: the growth control rate is greater than or equal to 20% and less than 40%)	3 (Grade 3: the growth control rate is greater than or equal to 40% and less than 60%)	4 (Grade 4: the growth control rate is greater than or equal to 60% and less than 85%)	183 to 185	5 (Grade 5: the growth control rate is greater than or equal to 85%)	5 (Grade 5: the growth control rate is greater than or equal to 85%)	5 (Grade 5: the growth control rate is greater than or equal to 85%)
Cc1ccc(C(=O)COc2ccc(N3C(=O)C4=C(CCCC4)C3=O)c(F)c2)cc1 [Compound C15, 2-(2-fluoro-4-(2-oxo-2-(4-tolyl)ethoxy)phenyl)-4,5,6,7-tetrahydro-1H-isoindole-1,3(2H)-dione]	5 (Grade 5: the growth control rate is greater than or equal to 85%)	5 (Grade 5: the growth control rate is greater than or equal to 85%)	5 (Grade 5: the growth control rate is greater than or equal to 85%)	5 (Grade 5: the growth control rate is greater than or equal to 85%)	5 (Grade 5: the growth control rate is greater than or equal to 85%)	5 (Grade 5: the growth control rate is greater than or equal to 85%)	1 (Grade 1: the growth control rate is greater than or equal to 5% and less than 20%)	2 (Grade 2: the growth control rate is greater than or equal to 20% and less than 40%)	3 (Grade 3: the growth control rate is greater than or equal to 40% and less than 60%)	5 (Grade 5: the growth control rate is greater than or equal to 85%)	5 (Grade 5: the growth control rate is greater than or equal to 85%)	5 (Grade 5: the growth control rate is greater than or equal to 85%)	2 (Grade 2: the growth control rate is greater than or equal to 20% and less than 40%)	3 (Grade 3: the growth control rate is greater than or equal to 40% and less than 60%)	4 (Grade 4: the growth control rate is greater than or equal to 60% and less than 85%)	144 to 146	5 (Grade 5: the growth control rate is greater than or equal to 85%)	5 (Grade 5: the growth control rate is greater than or equal to 85%)	5 (Grade 5: the growth control rate is greater than or equal to 85%)
CC(=O)Nc1cc(N2C(=O)C3=C(CCCC3)C2=O)c(F)cc1Cl [Compound D1, N-(2-chloro-5-(1,3-dioxo-1,3,4,5,6,7-hexahydro-2H-isoindole-2-yl)-4-fluorophenyl)acetamide]	–	–	5 (Grade 5: the growth control rate is greater than or equal to 85%)	–	–	5 (Grade 5: the growth control rate is greater than or equal to 85%)	–	–	3 (Grade 3: the growth control rate is greater than or equal to 40% and less than 60%)	–	–	5 (Grade 5: the growth control rate is greater than or equal to 85%)	–	–	4 (Grade 4: the growth control rate is greater than or equal to 60% and less than 85%)	155 to 157	–	–	5 (Grade 5: the growth control rate is greater than or equal to 85%)
C/C=C/C(=O)Nc1cc(N2C(=O)C3=C(CCCC3)C2=O)c(F)cc1Cl [Compound D5, (E)-N-(2-chloro-5-(1,3-dioxo-1,3,4,5,6,7-hexahydro-2H-isoindole-2-yl)-4-fluorophenyl)but-2-enamide]	–	–	5 (Grade 5: the growth control rate is greater than or equal to 85%)	–	–	5 (Grade 5: the growth control rate is greater than or equal to 85%)	–	–	3 (Grade 3: the growth control rate is greater than or equal to 40% and less than 60%)	–	–	5 (Grade 5: the growth control rate is greater than or equal to 85%)	–	–	4 (Grade 4: the growth control rate is greater than or equal to 60% and less than 85%)	133 to 138	–	–	5 (Grade 5: the growth control rate is greater than or equal to 85%)
